Measurements from the supplement of paper PMC10307832.

Experiments:
Assay in all cases: relative viability (nuclei count vs DMSO), 5 days (fraction); higher = more cells survive
Crizotinib + Luminespib = compound: C[C@@H](Oc1cc(-c2cnn(C3CCNCC3)c2)cnc1N)c1c(Cl)ccc(F)c1Cl [Crizotinib] + CCNC(=O)c1noc(-c2cc(C(C)C)c(O)cc2O)c1-c1ccc(CN2CCOCC2)cc1 [Luminespib] (partner 0.01 µM)
Method in brief: (§1)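 One day after seeding in 1536-well plates, lung cancer cell lines were dosed by pin tool. Dosing was either single-drug or a fixed anchor-drug dose plus five library-drug doses (not always all listed) in √10 steps. After 5 days, nuclei were stained in one fix-and-stain step and counted on 4× images, and relative viability is the nuclei count of treated wells over that of vehicle wells, given as the median of duplicate plates.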

Crizotinib + Phenformin = compound: C[C@@H](Oc1cc(-c2cnn(C3CCNCC3)c2)cnc1N)c1c(Cl)ccc(F)c1Cl [Crizotinib] + N=C(N)NC(=N)NCCc1ccccc1 [Phenformin] (partner 250 µM)
Method in brief: as §1

Olaparib + Dasatinib = compound: O=C(c1cc(Cc2n[nH]c(=O)c3ccccc23)ccc1F)N1CCN(C(=O)C2CC2)CC1 [Olaparib] + Cc1nc(Nc2ncc(C(=O)Nc3c(C)cccc3Cl)s2)cc(N2CCN(CCO)CC2)n1 [Dasatinib] (partner 0.075 µM)
Method in brief: as §1

## NCI-H1793
Crizotinib + Luminespib; first compound 0.03162 µM
  relative viability: 0.209
Crizotinib + Luminespib; first compound 0.1 µM
  relative viability: 0.178
Crizotinib + Luminespib; first compound 1 µM
  relative viability: 0.161
Crizotinib + Phenformin; first compound 0.03162 µM
  relative viability: 0.408
Crizotinib + Phenformin; first compound 0.1 µM
  relative viability: 0.343
Crizotinib + Phenformin; first compound 1 µM
  relative viability: 0.388
Olaparib + Dasatinib; first compound 0.08 µM
  relative viability: 0.377
Olaparib + Dasatinib; first compound 0.253 µM
  relative viability: 0.38
Olaparib + Dasatinib; first compound 2.53 µM
  relative viability: 0.353
Olaparib + Dasatinib; first compound 8 µM
  relative viability: 0.303
